The values below come from article PMC8583996, “Berberine Inhibits MDA-MB-231 Cells as an Agonist of G Protein-Coupled Estrogen Receptor 1” (International Journal of Molecular Sciences, 2021).

This test has as its target T1, human GPER1 (Homo sapiens, UniProt Q99527).
T1 construct: Sf9 baculovirus; Ni-NTA (tag not described) and size exclusion; DDM/CHS; primarily monomer
As to the kind of experiment: intrinsic fluorescence quenching titration. In kind it is binding.

T1 sequence (Q99527 whole entry): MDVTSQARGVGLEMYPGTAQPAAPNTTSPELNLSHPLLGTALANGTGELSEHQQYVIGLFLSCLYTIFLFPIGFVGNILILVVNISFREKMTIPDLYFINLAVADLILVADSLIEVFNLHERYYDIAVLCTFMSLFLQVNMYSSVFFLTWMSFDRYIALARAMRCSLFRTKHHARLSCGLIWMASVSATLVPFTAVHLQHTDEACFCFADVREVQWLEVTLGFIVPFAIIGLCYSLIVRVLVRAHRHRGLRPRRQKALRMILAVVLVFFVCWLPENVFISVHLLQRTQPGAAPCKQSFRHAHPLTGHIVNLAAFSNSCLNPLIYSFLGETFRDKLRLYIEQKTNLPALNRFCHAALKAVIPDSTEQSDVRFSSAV

In general, Kd refers to the free concentration of one partner at which half of the binding sites on the other are occupied at equilibrium, for simple one-to-one binding. Low values mean higher affinity, high ones lower affinity. Compound `COc1ccc2cc3[n+](cc2c1OC)CCc1cc2c(cc1-3)OCO2` [BBR] returned a Kd of 0.89 nM.
